In patent publication US9969679B2, “Anti-proliferative compounds and uses thereof” (Dana-Farber Cancer Institute, Inc., priority 2012, dated 2018):

Assays:
[1] = tested on: MCF7 human breast cancer cell lines; experiment: MCF7 cell growth, MTT dye absorbance; format: cell-based; details: for MCF7 cell growth: 72 hr
Procedure: (§1) MCF7 human breast cancer cell lines were obtained from the American Type Culture Collection (Manassas, Va.). The cells were cultured in DMEM (Mediatech Inc., Manassas, Va.) or RPMI1640 (Mediatech Inc., Manassas, Va.) supplemented with FBS (10%), penicillin, streptomycin, and glutamine (Invitrogen, Auckland, New Zealand). […] The MCF7 cells were harvested using 0.05% trypsin-EDTA (Invitrogen) and distributed into 96-well plates (10,000-20,000 cells/well) 24 hr prior to the treatment. All experiments were performed three times in quadruplicate.

acetylated lysine (Ac—K) = experiment: Immunoblot for acetylated lysine (histone acetylation); format: cell-based, human; details: MCF7 cells, 48 hr
Procedure: (§2) MCF7 cells were obtained and cultured (in the presence of compound III-B for 48 hr) in a similar manner as in Example 6. The cultured MCF7 cells were harvested, washed, and lysed using a lysis buffer (50 mM Tris-HCl (pH 7.4), 150 mM NaCl, 1% NP-40, 5 mM EDTA, 5 mM NaF, 1 mM Na3VO4, 1 mM PMSF, 5 μg/ml leupeptine, and 5 μg/ml aprotinin). […] The antibodies used were polyclonal anti-acetylated lysine (Ac—K; Cell Signaling Technology, Danvers, Mass.) and antibodies directed against EGFR, HER2, ER, and acetylated-α-tubulin (Ac-α-tubulin). […] In contrast, the expression of Ac—K in MCF7 cells was not affected by compound III-B (FIG. 12B).

[2] = tested on: T47D human breast cancer cells; experiment: T47D cell growth, MTT dye absorbance; format: cell-based; details: for T47D cell growth: 72 hr
Procedure: as §1
T47D human breast cancer cells were obtained, cultured (in the presence of compounds III-A, III-B, III-C, or III-E), and assayed in a similar manner as in Example 6.

ER = experiment: Immunoblot of whole cell lysates for ER; format: cell-based, human; details: for ER expression, dose-dependent: 24 hr
Procedure: as §2
(§3) MCF7 and T47D cells were obtained and cultured (in the presence of compound III-D (0, 0.5, 1, or 2 μM), for 24 hr), using methods similar to the ones described in Example 6. The whole cell lysates were immunoblotted with antibodies against EGFR, HER2, ER, and α-tubulin using methods similar to the ones described in Example 12. […] In contrast, the expression of α-tubulin in MCF7 or T47D cells was not affected by compound III-D (FIG. 13B).
(§4) MCF7 cells were obtained and cultured (in the presence of 2 μM of compound III-D, for 0, 12, 24, or 48 hr) using methods similar to the ones described in Example 6. The whole cell lysates were immunoblotted with antibodies against EGFR, HER2, ER, and α-tubulin using methods similar to the ones described in Example 12. […] In contrast, the expression of α-tubulin in MCF7 cells was not affected by compound III-D.

HER2 = experiment: Immunoblot of whole cell lysates for HER2; format: cell-based, human; details: for HER2 expression, dose-dependent: 24 hr
Procedure: as §2, §3, §4

[3] = tested on: LnCaP human prostate cancer cells; experiment: LnCaP cell growth, MTT dye absorbance; format: cell-based; details: 72 hr
Procedure: [The procedure below names another cell line; the source lists this cell line under the same test.] as §1

EGFR = experiment: Immunoblot of whole cell lysates for EGFR; format: cell-based, human; details: for EGFR expression, dose-dependent: 24 hr
Procedure: as §2, §3, §4

pY705 STAT3 = experiment: Intracellular flow cytometry of STAT3 phosphorylation in MDSCs; format: cell-based, human; details: 1 μM overnight, MM-PBMC, PHA 2 ng/ml 10 min
Procedure: (§5) STAT-mediated signaling plays an important role in MDSC activation and function.
(§6) MM-PBMCs were cultured overnight with (1 μM) or without compound III-D. Cells were induced with phytohemagglutinin (PHA, 2 ng/ml) for 10 min. Intracellular expression of pY701 STAT1, pY705 STAT3, pY694 STAT5, STAT1, STAT3, and STAT5 in MDSCs (CD11b^+CD14^−HLA-DR^−/lowCD33^+CD15^+), was determined by flow cytometry analysis.

pY701 STAT1 = experiment: Intracellular flow cytometry of STAT1 phosphorylation in MDSCs; format: cell-based, human; details: 1 μM overnight, MM-PBMC, PHA 2 ng/ml 10 min
Procedure: as §5, §6

pY694 STAT5 = experiment: Intracellular flow cytometry of STAT5 phosphorylation in MDSCs; format: cell-based, human; details: 1 μM overnight, MM-PBMC, PHA 2 ng/ml 10 min
Procedure: as §5, §6

[4] = tested on: T cells cocultured with MDSCs from peripheral blood of MM patients; experiment: MDSC-mediated T cell suppression, 3H-Thymidin incorporation assay; format: cell-based, human; details: 1 μM, 5 days coculture, T:MDSCs 4:1, antiCD3/CD28 Abs and rhIL-2
Procedure: CD11b^+CD14^−HLA-DR^−/lowCD33^+ MDSCs and CD3T cells were isolated from peripheral blood of MM patients. The cells were stimulated with antiCD3/CD28 Abs and 2 ng/ml rhIL-2 and cocultured (ratio of T:MDSCs was 4:1) for 5 days in the absence or presence (1 μM) of compound III-D. The cell proliferation was measured by ^3H-Thymidin incorporation assay.

[5] = tested on: CD11b+CD14−HLA-DR−/lowCD33+CD15+ MDSCs in MM-PBMC; experiment: MDSC number and maturation in MM-PBMC, flow cytometry; format: cell-based, human; details: 1 μM, cultured overnight; for number of CD11b+CD14−HLA-DR−/lowCD33+CD15+ MDSCs in MM-PBMC: vs untreated MM-PBMC
Procedure: In order to determine whether myeloid derived suppressor cells (MDSCs) are present in subjects with multiple myeloma (MM), fresh or cultured peripheral blood mononuclear cells (PBMCs) and bone marrow mononuclear cells (BMMCs) from human subjects with MM have been analyzed using standard cell-surface multicolor flow cytometry staining methods (see, e.g., Herzenberg et al., Clin. Chem. (2002) 48:1819-27; and Perez et al., Nat. Biotechnol. (2002) 20:155-62).
MM-PBMCs were cultured overnight with (1 μM) or without compound III-D. MDSCs (CD11b^+CD14^−HLA-DR^−/lowCD33^+CD15^+) were determined by flow cytometry analysis. Gates 110 and 130 indicate the MDSC population. Compound III-D induces maturation of MDSCs (CD11b^+CD14^−HLA-DR^−/lowCD33^+CD15^+) into CD14^+ and/or CD14^−[…] (FIG. 3G) in MM peripheral blood compared to untreated MM-PBMC (FIG. 3C). MM-PBMCs were cultured overnight with (1 μM) or without compound III-D. CD14 and/or HLA-DR expressing MDSCs (CD11b^+CD14^−HLA-DR^−/lowCD33^+CD15^+) were determined by flow cytometry analysis. Gates 100 and 120 indicate CD14^+ mature MDSC population. Gating strategy of MDSCs has been indicated as CD11b^+ cells (FIGS. 3A-3B and 3E-3F), CD11b^+CD14^−HLA-DR^−/lowCD14^− cells (FIGS. 3C and 3G) and MDSCs with a phenotype of CD11b^+/HLA-DR^−/lowCD14^−/CD33^+CD15^+ cells (FIGS. 3D and 3H).

MCF7 cells = experiment: Bortezomib and III-D combination cytotoxicity in MCF7 cells, MTT, isobologram analysis; format: cell-based, human; details: 48 hr; for Combination indicia (CI): MCF7 cells
Procedure: as §1
MCF7 cells were obtained, cultured (in the presence of bortezomib (0, 10, 20, or 40 nM) and III-D (0, 0.3, 1, or 3 μM), for 48 hr), and assayed using methods similar to the ones described in Example 6. The statistical significance of the differences observed between the control cultures and the cultures treated with bortezomib and compound III-D was determined using the Wilcoxon signed-ranks test. The minimal level of significance was p<0.05. The interaction between compound III-D and bortezomib was analyzed by isobologram analysis using the CalcuSyn software program (Biosoft, Ferguson, Mo.) to determine whether the combination was additive or synergistic. A combination index (CI)<1.0 indicates a synergistic cell growth inhibitory effect.

α-tubulin = experiment: Immunoblot of whole cell lysates for α-tubulin; format: cell-based, human
Procedure: as §2, §3, §4

[6] = MCF7 cells, 2 μM, 0, 12, 24, or 48 hr

CC(=O)N/N=C/c1ccc(N(c2ccccc2)c2ccccc2)cc1 [Compound III-B]
MCF7 cell growth [1]: inhibit | expression of Ac—K (acetylated lysine (Ac—K)): not affected | T47D cell growth [2]: inhibit | ER expression (ER; MCF7 cells, 48 hr): down-regulates | HER2 expression (HER2; MCF7 cells, 48 hr): down-regulates | LnCaP cell growth [3]: inhibit | EGFR expression (EGFR; MCF7 cells, 48 hr): down-regulates

O=Cc1ccc(N(c2ccccc2)c2ccccc2)cc1 [III-A]
MCF7 cell growth [1]: inhibit | T47D cell growth [2]: inhibit | LnCaP cell growth [3]: inhibit

CC(=O)NN=Cc1ccc(N(C)C)cc1 [Compound IV-D]
MCF7 cell growth [1]: does not

O=C1CN(/N=C/c2ccc(N(c3ccccc3)c3ccccc3)cc2)C(=O)N1 [Compound III-F]
MCF7 cell growth [1]: inhibit | phosphorylation of STAT3 (pY705) in MDSCs (pY705 STAT3): decreases | phosphorylation of STAT1 (pY701) in MDSCs (pY701 STAT1): decreases | phosphorylation of STAT5 (pY694) in MDSCs (pY694 STAT5): decreases | MDSC-mediated T cell suppression (T cell proliferation) [4]: reverses | number of CD11b+CD14−HLA-DR−/lowCD33+CD15+ MDSCs in MM-PBMC [5]: decreased

O/N=C/c1ccc(N(c2ccccc2)c2ccccc2)cc1 [Compound III-E]
MCF7 cell growth [1]: inhibit | T47D cell growth [2]: inhibit | LnCaP cell growth [3]: inhibit

CC(C)C[C@H](NC(=O)[C@H](Cc1ccccc1)NC(=O)c1cnccn1)B(O)O [bortezomib, reference compound]
response of MCF7 cells to bortezomib as single agent (MCF7 cells; bortezomib 0, 10, 20, or 40 nM): resistant

O=C(N/N=C/c1ccc(N(c2ccccc2)c2ccccc2)cc1)c1ccccc1 [Compound III-C]
MCF7 cell growth [1]: inhibit | T47D cell growth [2]: inhibit | LnCaP cell growth [3]: inhibit

CC(=O)NN=Cc1ccccc1 [Compound IV-C]
MCF7 cell growth [1]: do not

O=C(NN=Cc1ccccc1)c1ccccc1 [Compound IV-B]
MCF7 cell growth [1]: do not

CN1CCC(C(=O)N/N=C/c2ccc(N(c3ccccc3)c3ccccc3)cc2)CC1 [Compound III-D]
MCF7 cell growth [1]: inhibit | potency in inhibiting MCF7 cells compared with tamoxifen ([1]; at least at 3-10 μM of compound and tamoxifen): more potent than tamoxifen | phosphorylation of STAT3 (pY705) in MDSCs (pY705 STAT3): significantly reduced | phosphorylation of STAT1 (pY701) in MDSCs (pY701 STAT1): significantly reduced | Combination indicia (CI) (MCF7 cells; III-D 0.3 μM + bortezomib 10 nM): 1.58 | Combination indicia (CI) (MCF7 cells; III-D 0.3 μM + bortezomib 20 nM): 1.29 | Combination indicia (CI) (MCF7 cells; III-D 0.3 μM + bortezomib 40 nM): 0.83 | Combination indicia (CI) (MCF7 cells; III-D 1 μM + bortezomib 10 nM): 0.66 | Combination indicia (CI) (MCF7 cells; III-D 1 μM + bortezomib 20 nM): 0.53 | Combination indicia (CI) (MCF7 cells; III-D 1 μM + bortezomib 40 nM): 0.53 | Combination indicia (CI) (MCF7 cells; III-D 3 μM + bortezomib 10 nM): 1.22 | Combination indicia (CI) (MCF7 cells; III-D 3 μM + bortezomib 20 nM): 1.03 | Combination indicia (CI) (MCF7 cells; III-D 3 μM + bortezomib 40 nM): 0.98 | enhancement of bortezomib-induced MCF7 cytotoxicity (interaction) (MCF7 cells; combination with bortezomib, at least at certain concentrations, CI<1 = synergistic): synergistically | phosphorylation of STAT5 (pY694) in MDSCs (pY694 STAT5): significantly reduced | potency in inhibiting T47D cells compared with tamoxifen [2]: more potent than tamoxifen | MDSC-mediated T cell suppression (T cell proliferation) [4]: Reversed | ER expression, dose-dependent (ER; MCF7 cells, 0, 0.5, 1, or 2 μM): down-regulates | ER expression, time-dependent (ER; [6]): down-regulates | ER expression, dose-dependent (ER; T47D cells, 0, 0.5, 1, or 2 μM): down-regulates | HER2 expression, dose-dependent (HER2; MCF7 cells, 0, 0.5, 1, or 2 μM): down-regulates | HER2 expression, time-dependent (HER2; [6]): down-regulates | HER2 expression, dose-dependent (HER2; T47D cells, 0, 0.5, 1, or 2 μM): down-regulates | maturation of MDSCs into CD14+ monocytes and/or CD14+HLA-DR+ antigen presenting cells ([5]; MM-PBMC): induced maturation | number of CD11b+CD14−HLA-DR−/lowCD33+CD15+ MDSCs in MM-PBMC [5]: significant decrease | expression of α-tubulin (α-tubulin; MCF7 cells, 0, 0.5, 1, or 2 μM, 24 hr): not affected | expression of α-tubulin (α-tubulin; [6]): not affected | expression of α-tubulin (α-tubulin; T47D cells, 0, 0.5, 1, or 2 μM, 24 hr): not affected | EGFR expression, dose-dependent (EGFR; MCF7 cells, 0, 0.5, 1, or 2 μM): down-regulates | EGFR expression, time-dependent (EGFR; [6]): down-regulates | EGFR expression, dose-dependent (EGFR; T47D cells, 0, 0.5, 1, or 2 μM): down-regulates
